Experimental data reported in patent publication US8877944B2, “3-oxo-2,3-dihydro-1H-isoindole-4-carboxamides as PARP inhibitors” (Nerviano Medical Sciences S.R.L., priority 2009, dated 2014).
Read-outs that look alike come from different tables or passages of the source.

How the values were obtained:
[1] = tested on: Capan-1 human pancreatic cancer tumors; experiment: In vivo efficacy, single agent, Capan-1 BRCA-2 mutated mouse model
Description: Fragments of Capan-1 human pancreatic cancer tumors were implanted subcutaneously. Mice bearing a palpable tumor (100-200 mm^3) were selected and randomized into control and treated groups. Each group included seven animals. The treatment started one day after randomization. Compound of formula (I) was administered by oral route as a methocel suspension at the indicated doses and times. Tumor dimension was measured regularly by calipers during the experiments and tumor mass was calculated as described in Simeoni M. et al., Cancer Res 64, 1094-1101 (2004).

[2] = biological target: PARP-1 FL (Homo sapiens (Human), UniProt P09874); experiment: Fluorescence polarization probe displacement assay, PARP-1; assay type: binding; conditions: for DC50: half maximal displacement concentration
Description: (§1) Affinity evaluation of the tested compounds and their selectivity with respect to the different PARP isoforms of interest was assessed in a displacement assay.
(§2) The polarization signal can be measured, e.g., by a plate reader such as the Saphire2 (Tecan). The displacement ability of the test compound is in correlation with the compound affinity for the NAD pocket of the enzyme.
(§3) The assay performances were then evaluated (Z′ factor) as well as the displacement of the probe by its scaffold and known commercially available PARP inhibitors. In all of the experiments, the polarization signal was measured using a Saphire2 plate reader (Tecan). Data analysis was performed using Dynafit software. In particular, titration data were fitted to the following equilibria: Enzyme+probe <==> Complex Enzyme-probe, while displacement data were fitted to the following equilibria: Enzyme+probe <==> Complex Enzyme-probe, Enzyme+Compound <==> Complex Enzyme-Compound, whereby binding of probe and compound on the enzyme are mutually exclusive (pure competitive mechanism). Displacement data were also fitted using Excell spreadsheet (Microsoft Inc. Seattle, USA) to a four parameter logistic model (4PL), or Hill-Slope model to calculate DC50s where the DC50 value represents the compound concentration at which the polarization signal is diminished by 50% compared to untreated controls.
(§4) KD values, are the average of three independent experiments.

[3] = biological target: PARP-2 FL (Homo sapiens (Human), UniProt Q9UGN5); experiment: Fluorescence polarization probe displacement assay, PARP-2; assay type: binding
Description: as §1, §2, §3, §4

[4] = biological target: PARP-3 FL (Homo sapiens (Human), UniProt Q9Y6F1); experiment: Fluorescence polarization probe displacement assay, PARP-3; assay type: binding; conditions: half maximal displacement concentration
Description: as §1, §2, §3, §4

[5] = tested on: PAR formation in HeLa cells; experiment: Cellular PAR assay: inhibition of hydrogen peroxide induced PAR formation; conditions: Homo sapiens, read-out: PAR assay IC50
Description: Compounds potencies were evaluated by measuring the inhibition of poly (ADP-ribose) (PAR) chains formation as a marker for PARP-1 inhibition.
Cellular activity of PARP-1 inhibitors was assessed by measuring the inhibition of the hydrogen peroxide induced PAR formation in HeLa cells (ECACC). Cellular PAR levels were measured by immunocytochemistry, and quantified using an ArrayScan vTi instrument (Cellomics Thermo Scientific).
Test compounds were then added at the required concentration for 30′. […] Concentration curves were prepared in MEM/10% FCS from compound stocks in DMSO, and final DMSO concentration was 0.002% (v/v). Duplicate wells for each concentration point were prepared with a typical highest compound concentration of 20 μM and serial dilution 1:3. […] Non-specific binding sites were blocked by incubating wells for 30 min in PBS containing 5% (w/v) FBS 0.05% tween20. […] After washing further 3 times in PBS, cellular PAR immunoreactivity was assessed using the ArrayScan vTi instrument, with a Zeiss 10×0.5 N.A. objective, and applying the Cytotoxicity.V3 algorithm (Cellomics/Thermo Fisher) with a XF100 filter. At least 10 fields, corresponding to at least 900 cells, were read for each well.
The following formula is used: IC50=Bottom+(Top-Bottom)/(1+10^((LogEC50−X))); X is the logarithm of concentration. IC50 is the response; IC50 starts at Bottom and goes to Top with a sigmoid shape.

[6] = tested on: ovarian cancer with confirmed BRCA-1 mutations; conditions: ovarian cancer patients with confirmed BRCA-1 mutations, monotherapy; cited from earlier work
[7] = Pharmacokinetics and oral bioavailability in the mouse; conditions: for C-max (oral): 10 mg/kg single oral dose, mean value; for F on AUC / Vd / clearance / AUC / half-life: 10 mg/kg; for F on AUC: oral vs IV dose-normalized AUC; for Vd / clearance / AUC / half-life: male, Balb Nu/Nu, plasma; for Vd / clearance: iv; for AUC / half-life: po
Description: The compounds were formulated in 10% tween 80/dextrose for intravenous bolus administration while oral administrations were performed using the compounds formulated in 0.5% methylcellulose. A single administration at the dose of 10 mg/kg was given and three male animals for each route were used. […] Plasma samples were prepared by plasma proteins precipitation adding 200 μL of methanol to 10 μL of plasma in a 96 well plate. […] The supernatant was considered as final extract and injected onto the LC-MS-MS system (HPLC system: Hewlett Packard 1100 series using Atlantis HILIC Silica 50*2.1 mm 5.0 μm analytical column; MS instrument: Perkin Elmer SCIEX API 2000 and ionization performed with Turbo Ion Spray in positive ion mode). Lower limit of quantification is 5.0 ng/mL, upper limit of quantification is 10000 ng/mL. […] Non-compartmental method (linear trapezoidal rule and linear regression analysis of natural log-transformed plasma concentrations vs. time data) was used. After intravenous dosing, C0 was set equal to C0.083 Absolute bioavailability (F) was calculated from the ratio of average oral to IV (intravenous) dose-normalized plasma AUC (area under curve) values.

[8] = 100 mg/kg oral, days 1-14 daily
[9] = compound P1 as the probe, 250 nM PARP-1
[10] = read-out: PARP-2 DC50; half maximal displacement concentration
[11] = compound P3 as the probe, 100 nM PARP-1
[12] = half maximal displacement concentration; read-out: PARP-2 DC50
[13] = 100 mg/kg oral, days 1-15 daily
[14] = 100 mg/kg oral, days 1-6 twice a day

Chain of PARP-3 FL (Q9Y6F1 whole entry): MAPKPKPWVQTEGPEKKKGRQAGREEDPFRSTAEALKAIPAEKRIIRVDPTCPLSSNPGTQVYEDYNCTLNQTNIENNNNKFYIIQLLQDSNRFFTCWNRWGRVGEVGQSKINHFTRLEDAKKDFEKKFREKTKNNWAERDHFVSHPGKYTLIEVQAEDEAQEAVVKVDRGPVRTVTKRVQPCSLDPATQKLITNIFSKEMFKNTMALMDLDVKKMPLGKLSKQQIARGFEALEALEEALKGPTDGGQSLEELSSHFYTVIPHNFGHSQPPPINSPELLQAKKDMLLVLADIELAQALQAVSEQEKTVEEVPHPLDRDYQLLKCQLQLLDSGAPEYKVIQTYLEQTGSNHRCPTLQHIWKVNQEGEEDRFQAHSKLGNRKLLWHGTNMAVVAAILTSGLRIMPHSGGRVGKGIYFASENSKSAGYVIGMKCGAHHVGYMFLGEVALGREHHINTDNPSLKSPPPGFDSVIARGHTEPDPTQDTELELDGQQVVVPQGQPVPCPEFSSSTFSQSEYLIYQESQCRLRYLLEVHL
Chain of PARP-1 FL (P09874 whole entry): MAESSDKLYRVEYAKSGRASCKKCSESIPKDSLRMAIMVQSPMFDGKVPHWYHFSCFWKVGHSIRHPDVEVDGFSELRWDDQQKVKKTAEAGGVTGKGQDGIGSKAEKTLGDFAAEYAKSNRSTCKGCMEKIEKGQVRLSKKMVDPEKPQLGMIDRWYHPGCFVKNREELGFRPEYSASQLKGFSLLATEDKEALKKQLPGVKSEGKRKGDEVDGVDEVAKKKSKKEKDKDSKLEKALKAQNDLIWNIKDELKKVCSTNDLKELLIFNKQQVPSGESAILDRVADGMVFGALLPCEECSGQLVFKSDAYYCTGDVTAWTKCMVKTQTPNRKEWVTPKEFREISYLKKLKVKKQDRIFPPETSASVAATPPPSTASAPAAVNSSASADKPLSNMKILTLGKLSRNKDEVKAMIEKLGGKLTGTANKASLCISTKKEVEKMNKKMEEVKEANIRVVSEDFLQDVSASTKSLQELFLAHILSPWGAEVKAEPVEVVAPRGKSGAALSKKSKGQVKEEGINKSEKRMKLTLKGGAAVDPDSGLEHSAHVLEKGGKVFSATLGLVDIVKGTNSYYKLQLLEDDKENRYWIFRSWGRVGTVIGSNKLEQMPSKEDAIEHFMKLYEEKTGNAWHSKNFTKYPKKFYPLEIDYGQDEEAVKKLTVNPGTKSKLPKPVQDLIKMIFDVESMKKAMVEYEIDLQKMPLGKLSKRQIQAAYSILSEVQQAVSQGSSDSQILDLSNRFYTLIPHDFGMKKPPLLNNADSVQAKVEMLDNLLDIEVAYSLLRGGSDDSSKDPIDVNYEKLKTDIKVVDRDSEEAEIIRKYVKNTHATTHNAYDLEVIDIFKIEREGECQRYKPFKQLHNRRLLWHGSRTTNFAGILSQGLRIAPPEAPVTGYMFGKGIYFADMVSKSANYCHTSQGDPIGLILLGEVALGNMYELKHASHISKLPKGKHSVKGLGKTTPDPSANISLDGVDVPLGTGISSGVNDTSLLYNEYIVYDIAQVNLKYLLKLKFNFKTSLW
Chain of PARP-2 FL (Q9UGN5 whole entry): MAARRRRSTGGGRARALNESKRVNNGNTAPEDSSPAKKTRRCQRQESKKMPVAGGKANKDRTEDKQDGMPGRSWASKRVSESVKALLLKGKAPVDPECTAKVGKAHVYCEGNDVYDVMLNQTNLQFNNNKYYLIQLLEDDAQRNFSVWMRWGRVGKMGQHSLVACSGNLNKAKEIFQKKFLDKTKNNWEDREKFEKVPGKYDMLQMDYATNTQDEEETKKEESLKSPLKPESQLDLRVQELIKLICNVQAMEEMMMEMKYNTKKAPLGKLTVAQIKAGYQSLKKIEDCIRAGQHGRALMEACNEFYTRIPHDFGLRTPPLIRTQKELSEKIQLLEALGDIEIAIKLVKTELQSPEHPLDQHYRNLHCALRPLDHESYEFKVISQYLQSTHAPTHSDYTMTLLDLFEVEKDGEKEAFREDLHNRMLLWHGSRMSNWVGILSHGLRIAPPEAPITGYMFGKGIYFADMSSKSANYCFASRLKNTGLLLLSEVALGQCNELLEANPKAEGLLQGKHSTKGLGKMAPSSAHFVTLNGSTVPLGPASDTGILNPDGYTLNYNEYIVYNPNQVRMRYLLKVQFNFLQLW

Structure (SMILES) | DC50 [2] [nM] | DC50 [3, 10] [nM] | DC50 [4] [nM] | IC50 [5] [nM] | Kd [2, 11] [nM] | AUC [7] [µM·h] | other results
NC(=O)c1cccc2c1C(=O)N(C1CCN(Cc3ccc4[nH]ccc4c3)CC1)C2 [Compound 29, 2-[1-(1H-indol-5-ylmethyl)piperidin-4-yl]-3-oxo-2,3-dihydro-1H-isoindole-4-carboxamide] | – | – | – | – | – | – | Max TGI (%) [1, 8]: 38%; Toxicity (body weight reduction, mice out of 7) [1, 8]: 0/7
COCCN1CCC(N2Cc3cccc(C(N)=O)c3C2=O)CC1 [Compound 106, 2-[1-(2-Methoxyethyl)piperidin-4-yl]-3-oxo-2,3-dihydro-1H-isoindole-4-carboxamide] | 280 | > 10000 | 2550 | 410 | – | – | Kd [2, 9]: 110 nM
NC(=O)c1cccc2c1C(=O)N(C1CCN(C3CCC(F)(F)CC3)CC1)C2 [Compound 7, 2-[1-(4,4-Difluorocyclohexyl)-piperidin-4-yl]-3-oxo-2,3-dihydro-1H-isoindole-4-carboxylic acid amide] | – | – | 3540 | – | – | – | Max TGI (%) ([1]; 80 mg/kg oral, days 1-8 daily): 47%; Toxicity (body weight reduction, mice out of 7) ([1]; 80 mg/kg oral, days 1-8 daily): 0/7
O=C(c1cc(Cc2n[nH]c(=O)c3ccccc23)ccc1F)N1CCN(C(=O)C2CC2)CC1 [AZD2281] | – | – | – | – | – | – | partial responses [6]: 4 out of 10
NC(=O)c1cccc2c1C(=O)N(C1CCN([C@H]3CC[C@@H](CO)CC3)CC1)C2 [Compound 3, 2-{1-[Cis-4-(hydroxymethyl)cyclohexyl]piperidin-4-yl}-3-oxo-2,3-dihydro-1H-isoindole-4-carboxamide] | < 250 | – | 2300 | 140 | 13 | 2.39 | DC50 [3, 12]: > 10000 nM; C-max (oral) [7]: 1.17 µM; F on AUC [7]: 82.5%; Vd [7]: 4.75 L/kg; clearance [7]: 104 mL/min/kg; half-life [7]: 1.75 h
NC(=O)c1cccc2c1C(=O)N(C1CCN([C@H]3CC[C@H](CO)CC3)CC1)C2 [Compound 4, 2-{1-[Trans-4-(hydroxymethyl)cyclohexyl]piperidin-4-yl}-3-oxo-2,3-dihydro-1H-isoindole-4-carboxamide] | < 250 | – | 4900 | 90 | 20 | 1.3 | DC50 [3, 12]: > 10000 nM; C-max (oral) [7]: 0.4 µM; F on AUC [7]: 55%; Vd [7]: 5.95 L/kg; clearance [7]: 135 mL/min/kg; half-life [7]: 1.42 h
CO[C@H]1CC[C@@H](N2CCC(N3Cc4cccc(C(N)=O)c4C3=O)CC2)CC1 [Compound 1, 2-[1-(Cis-4-methoxycyclohexyl)piperidin-4-yl]-3-oxo-2,3-dihydro-1H-isoindole-4-carboxamide] | < 250 | > 10000 | 3700 | 390 | 60 | – | –
NC(=O)c1cc(F)cc2c1C(=O)N(C1CCN(C3CCC(F)(F)CC3)CC1)C2 [Compound 99, 2-[1-(4,4-Difluorocyclohexyl)-piperidin-4-yl]-6-fluoro-3-oxo-2,3-dihydro-1H-isoindole-4-carboxamide] | – | – | 1580 | – | – | 19.6 | Max TGI (%) [1, 13]: 55%; Toxicity (body weight reduction, mice out of 7) [1, 13]: 0/7
CC(C)n1cc(CN2CCC(N3Cc4cccc(C(N)=O)c4C3=O)CC2)c2ccccc21 [Compound 32, 3-oxo-2-(1-{[1-(propan-2-yl)-1H-indol-3-yl]methyl}piperidin-4-yl)-2,3-dihydro-1H-isoindole-4-carboxamide] | < 250 | – | 270 | 380 | 40 | 1.48 | DC50 [3, 12]: > 10000 nM; Max TGI (%) [1, 14]: 32%; Toxicity (body weight reduction, mice out of 7) [1, 14]: 0/7; C-max (oral) [7]: 0.43 µM; F on AUC [7]: 24%; Vd [7]: 2.78 L/kg; clearance [7]: 59.5 mL/min/kg; half-life [7]: 1.84 h
NC(=O)c1cc(F)cc2c1C(=O)N(C1CCN(C3CCC(=O)CC3)CC1)C2 [Compound 103, 6-Fluoro-3-oxo-2-[1-(4-oxocyclohexyl)piperidin-4-yl]-2,3-dihydro-1H-isoindole-4-carboxamide] | < 250 | 3770 | 4670 | 80 | < 10 | – | –
NC(=O)c1cccc2c1C(=O)N(C1CCN(C3CCC4(CC3)OCCO4)CC1)C2 [Compound 8, 2-[1-(1,4-Dioxaspiro[4.5]dec-8-yl)piperidin-4-yl]-3-oxo-2,3-dihydro-1H-isoindole-4-carboxamide] | 280 | > 10000 | > 10000 | 530 | – | – | Kd [2, 9]: 130 nM
